Holding throughout (assay type): in vivo
Data set [1] has as its system WT female mice on the C57B1/6 genetic background. Nature of the data set: Example 3: efficacy of GLP-1 receptor agonists administered once per day (body weight, blood glucose, pancreas, small bowel, colon). As to the method:
All mice used in the study were 10-week old WT female mice on the C57B1/6 genetic background. The mice were maintained on regular drinking water and a standard rodent chow diet.
All injections were given once per day, and were administered ip using a 31 g insulin syringe with an 8 mm long needle in a final volume that ranged between 84-125 μl. The body weight and food intake were determined daily. Non-fasting blood glucose levels were measured using a hand-held glucometer on day 1 (prior to the first injection), day 8, and day 15 (day of sacrifice). […] The entire pancreas was removed and weighed. The entire small bowel was removed and then suspended vertically with a 1 g weight attached to the distal portion of the small bowel (to provide uniform tension). Small bowel length was determined using a vertical ruler and then flushed with ice-cold PBS, blotted dry and weighed. The entire colon was removed and colon length was determined by measuring with a ruler placed on a horizontal surface. The colon was then flushed with ice-cold PBS, blotted dry and weighed. All statistical analyses were done by one-way ANOVA with Bonferroni's Multiple Comparison Post-Test using GraphPad Prism software (version 4), n=4 mice/group.

In data set [2] the test system is female wild-type mice on the Balb/c genetic background. Nature of the data set: Example 5: low dose Liraglutide (30 or 50 μg/kg BID s.c., one week), large intestine size and body weight, Balb/c mice. The note with it: Liraglutide 30 μg/kg BID s.c. 7 days vs PBS. From the text:
FIGS. 18A-18D illustrate that doses of Liraglutide lower than those that have shown glucose lowering or cardioprotective effects in rodents [Rolin B, et al, 2002; Noyan-Ashraf M H, et al, 2009; Porter D W et al, 2010; Irwin N et al, 2010; and Gault V A et al, 2011] are still able to increase large intestine size (large intestine weight and length) in wild-type mice compared to PBS-treated mice. FIGS. 18A-18D also illustrate that Liraglutide treatment can increase large intestine size (large intestine length and weight) in wild-type mice on the Balb/c genetic background compared to control-treated mice. All mice were 9-week old female wild-type mice on the Balb/c genetic background. All mice were maintained on a standard rodent chow diet and normal drinking water. Mice were given s.c. injections of either phosphate buffered saline (PBS), 30 μg/kg of Liraglutide (LG) BID, or 50 μg/kg of LG BID for one week. Injections were administered using a 31 g insulin syringe with an 8 mm long needle and in a final volume that ranged between 60-120 μl. Body weights and food intake were determined daily. […] The large intestine was removed and its length was determined by measuring with a ruler placed on a horizontal surface. Luminal contents were removed from the large intestine by flushing with ice-cold PBS using a 60 cc syringe attached to a p200 pipette tip. Mesenteric fat was dissected away from the large intestine. The large intestine was blotted to remove excess PBS and then weighed. Statistical analyses were done by one-way ANOVA with Bonferroni's Multiple Comparison Post-Test using GraphPad Prism software (version 4).
All mice were 9-week old female wild-type mice on the Balb/c genetic background. All mice were maintained on a standard rodent chow diet and normal drinking water. Mice were given s.c. injections of either phosphate buffered saline (PBS), 30 μg/kg of Liraglutide (LG) BID, or 50 μg/kg of LG BID for one week. […] Body weights and food intake were determined daily. […]

In data set [3] the test system is wild-type female C57B1/6 mice on regular drinking water or 3% DSS. Nature of the data set: Example 5: low dose Liraglutide (25 or 50 μg/kg BID s.c., one week), small intestine size, body weight, blood glucose. The note with it: C57B1/6, regular water or 3% DSS. As to the method: All mice were 10-week old wild-type female mice on the C57B1/6 genetic background. Mice were maintained on a standard rodent chow diet and either regular drinking water or water supplemented with 3% DSS for a total of one week. Mice were given subcutaneous injections of either phosphate buffered saline (PBS), 25 μg/kg of Liraglutide (LG) BID, or 50 μg/kg of LG BID for one week. PBS or LG injections commenced at the same time that mice were started on normal drinking water or water supplemented with 3% DSS. Injections were administered using a 31 g insulin syringe with an 8 mm long needle and in a final volume that ranged between 85-110 μl. Body weights, food intake, and water intake were determined daily. […] Small intestines were removed and then suspended vertically with a 1 g weight attached to the distal portion of the small intestine (to provide uniform tension). Small intestine length was determined using a vertical ruler. Luminal contents were removed from the small bowel by flushing with ice-cold PBS using a 60 cc syringe attached to a p200 pipette tip. Mesenteric fat and pancreatic tissue were dissected away from the small intestine. The small intestine was blotted to remove excess PBS and then weighed. Statistical analyses were done by one-way ANOVA with Bonferroni's Multiple Comparison Post-Test using GraphPad Prism software (version 4).
All mice were 10-week old female wild-type mice on the C57B1/6 genetic background. Mice were maintained on a standard rodent chow diet and either regular drinking water or water supplemented with 3% DSS for a total of one week. Mice were given s.c. injections of either phosphate buffered saline (PBS), 25 μg/kg of Liraglutide (LG) BID, or 50 μg/kg of LG BID for one week. PBS or LG injections commenced at the same time that mice were started on normal drinking water or water supplemented with 3% DSS. Injections were administered using a 31 g insulin syringe with an 8 mm long needle and in a final volume that ranged between 85-110 μl. Body weights, food intake, and water intake were determined daily. Blood glucose levels were measured on the first day of the study and just prior to sacrifice. Statistical analyses were done by one-way ANOVA with Bonferroni's Multiple Comparison Post-Test using GraphPad Prism software (version 4). n=5 mice/group.

Setting [4] is: Liraglutide once a day ip for two weeks (LG qd 2, 75 μg/kg) vs PBS.
Setting [5] is: Liraglutide 25 μg/kg BID s.c. 7 days vs PBS, listed as 3% DSS/Liguratide.
[6] abbreviates: Liraglutide 25 μg/kg BID s.c. 7 days vs PBS, listed as liraglutide.
The mark [7] stands for this setting: Liraglutide 50 μg/kg BID s.c. 7 days vs PBS.
[8] abbreviates: Liraglutide 50 μg/kg BID s.c. 7 days vs PBS, listed as 3% DSS/Liguratide.
Where [9] appears, read: Liraglutide 50 μg/kg BID s.c. 7 days vs PBS, listed as liraglutide.

The text below walks through data of patent US9168288B2, “Methods for treating disorders of the gastrointestinal tract using a GLP-1 agonist” (Mount Sinai Hospital, priority 2010, dated 2015).

Take `CCCCCCCCCCCCCCCC(=O)N[C@@H](CCC(=O)NCCCC[C@H](NC(=O)[C@H](C)NC(=O)[C@H](C)NC(=O)[C@H](CCC(N)=O)NC(=O)CNC(=O)[C@H](CCC(=O)O)NC(=O)[C@H](CC(C)C)NC(=O)[C@H](Cc1ccc(O)cc1)NC(=O)[C@H](CO)NC(=O)[C@H](CO)NC(=O)[C@@H](NC(=O)[C@H](CC(=O)O)NC(=O)[C@H](CO)NC(=O)[C@@H](NC(=O)[C@H](Cc1ccccc1)NC(=O)[C@@H](NC(=O)CNC(=O)[C@H](CCC(=O)O)NC(=O)[C@H](C)NC(=O)[C@@H](N)Cc1cnc[nH]1)[C@@H](C)O)[C@@H](C)O)C(C)C)C(=O)N[C@@H](CCC(=O)O)C(=O)N[C@@H](Cc1ccccc1)C(=O)N[C@H](C(=O)N[C@@H](C)C(=O)N[C@@H](Cc1c[nH]c2ccccc12)C(=O)N[C@@H](CC(C)C)C(=O)N[C@H](C(=O)N[C@@H](CCCNC(=N)N)C(=O)NCC(=O)N[C@@H](CCCNC(=N)N)C(=O)NCC(=O)O)C(C)C)[C@@H](C)CC)C(=O)O` [Liraglutide]: the results for the “non-fasting blood glucose levels” value in data set [1] (Liraglutide 75 μg/kg ip once a day for one week vs PBS) and in data set [1] (Liraglutide 75 μg/kg ip once a day for two weeks vs PBS) were “does not alter” and “significantly increased”, respectively. The body weight result in data set [1] (Liraglutide 75 μg/kg ip once per day for 7 days (LG qd 1) vs PBS) and in data set [1] (Liraglutide 75 μg/kg ip once per day for 14 days (LG qd 2) vs PBS) was “do not have a significant effect” throughout. Also, in data set [1] (setting [4]), the “pancreas weight per gram of body weight” value was “significantly increases”. Further, in data set [1] (setting [4]), the total pancreas weight result is “significantly increases”. Also, the “decrease body weight (final body weight)” value is given as “no difference” in data set [2]; “No” in data set [2] (listed as 3% DSS/Liguratide); “no difference” in data set [2] (listed as liraglutide); “No” in data set [3] (setting [5]); “no difference” in data set [3] (setting [6]); “no difference” in data set [3] (setting [7]). The entries for the “decrease body weight (final body weight)” value in data set [3] (setting [8]) and in data set [3] (setting [9]) were “No” and “no difference”, respectively. The “increase blood glucose (blood glucose level)” value was “no difference” in data set [3] (Liraglutide 25 μg/kg BID s.c. 7 days vs PBS); “No” in data set [3] (setting [5]); “no difference” in data set [3] (setting [6]); “no difference” in data set [3] (setting [7]); “No” in data set [3] (setting [8]); “no difference” in data set [3] (setting [9]).
